Laboratory results: paper PMC4812366, “3,1-Benzothiazines, 1,4-Benzodioxines and 1,4-Benzoxazines as Inhibitors of Matriptase-2: Outcome of a Focused Screening Approach” (Pharmaceuticals, 2016)
Read-outs that look alike come from different tables or passages of the source.

Tests used:
[1] = biological target: T1, human matriptase-2 (Homo sapiens, UniProt Q8IU80); assay: Human matriptase-2 inhibition, fluorogenic substrate Boc-Gln-Ala-Arg-AMC, conditioned medium of HEK-MT2 cells; type: biochemical; details: for IC50: substrate 40 µM, pH 8.0, 37 °C; for matriptase-2 inhibitory activity in words: screening at single inhibitor concentration of 40 µM
T1 construct: The conditioned medium of HEK-MT2 cells was used as a source of matriptase-2 activity; expressed in transfected cells; host or cells: HEK-MT2 cells (conditioned medium, collected and concentrated)
T1 sequence (Q8IU80 577-811 limits assumed): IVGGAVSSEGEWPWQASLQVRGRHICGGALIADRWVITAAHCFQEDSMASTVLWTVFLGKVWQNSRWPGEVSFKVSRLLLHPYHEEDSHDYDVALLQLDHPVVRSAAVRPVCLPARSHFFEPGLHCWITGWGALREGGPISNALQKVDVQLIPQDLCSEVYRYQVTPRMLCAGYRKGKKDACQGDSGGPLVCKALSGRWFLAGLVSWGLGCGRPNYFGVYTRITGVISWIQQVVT
T1 sequence (Q8IU80 438-576 partner limits assumed): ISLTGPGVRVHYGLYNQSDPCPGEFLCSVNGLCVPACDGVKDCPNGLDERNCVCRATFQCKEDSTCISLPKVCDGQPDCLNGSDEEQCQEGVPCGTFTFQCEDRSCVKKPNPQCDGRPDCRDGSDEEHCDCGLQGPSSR
Protocol: The conditioned medium of HEK-MT2 cells was used as a source of matriptase-2 activity and assay conditions were as follows. Assay buffer was 50 mM Tris–HCl, 150 mM NaCl, pH 8.0. The conditioned medium was collected and concentrated, and aliquots of the supernatant were stored at −20 °C. After thawing, it was diluted with assay buffer (1:10 or 1:20 depending on the enzyme activity) and kept at 0 °C not longer than 8 h. The assays were performed at a FLUOstar OPTIMA PlateReader (BMG Labtech, Ortenberg, Germany). A 10 mM stock solution of the fluorogenic substrate Boc-Gln-Ala-Arg-AMC (Bachem, Bubendorf, Switzerland) in DMSO was diluted with assay buffer. The final concentration of the substrate was 40 µM and of DMSO was 6%. The substrate concentration of 40 µM refers to 1.24 × Km. Into each well containing 163.8 µL buffer, 11.2 µL of an inhibitor solution in DMSO and 10 µL of a substrate solution (800 µM) were added and thoroughly mixed. At 37 °C the reaction was initiated by adding 15 µL of diluted conditioned medium and followed over 400 s. All measurements were performed in duplicate with a single inhibitor concentration of 40 µM. Active inhibitors were investigated in duplicate with five different concentrations. Benzamidine hydrochloride was purchased from Acros Organics (Geel, Belgium).
Progress curves were analyzed by linear regression. IC50 values were determined by nonlinear regression using the equation vs = v0/(1 + [I]/IC50), where vs is the steady-state rate, v0 is the rate in the absence of the inhibitor, and [I] is the inhibitor concentration. Standard errors of the mean (SEM) values refer to this nonlinear regression.

[2] = tested on: thrombin; details: cited from earlier work; for thrombin inhibition relative to trypsin and factor Xa, in words: ref [39],[41]
[3] = biological target: T1, human matriptase-2; assay: Human matriptase-2 inhibition, fluorogenic substrate Boc-Gln-Ala-Arg-AMC, conditioned medium of HEK-MT2 cells; type: biochemical; details: substrate concentrations of 20, 30, 40, 50 and 60 µM
[4] = Table 2, 2,3-dihydro-1,4-benzodioxines and 3,4-dihydro-2H-1,4-benzoxazines, values with SEM: duplicate, five inhibitor concentrations, limits: duplicate, single inhibitor concentration of 40 µM, read-out: IC50 (µM) ± SEM
[5] = read-out: IC50 value for matriptase-2 inhibition
[6] = Table 1, 4H-3,1-benzothiazin-4-ones, values with SEM: duplicate, five inhibitor concentrations, limits: duplicate, single inhibitor concentration of 40 µM, read-out: IC50 (µM) ± SEM

Work on `N=C(N)c1ccc(OC[C@@H]2COc3ccc(N(Cc4ccccc4)C(=O)C(=O)O)cc3O2)cc1` [(R)-10] yielded an IC50 [1, 4] of 27.3 ± 2 µM.
With `N=C(N)c1ccc(OC[C@@H]2COc3cc(N(Cc4ccccc4)C(=O)C(=O)O)ccc3O2)cc1` [(R)-11] the IC50 [1, 4] was 33.6 ± 1.1 µM.
For `CCOC(=O)C1CCN(c2ccc(N3C[C@@H](CNCc4ccc(C(=N)N)cc4)OC3=O)cc2)CC1` [(R)-24], the IC50 [1, 4] was over 40 µM and the “matriptase-2 inhibitory activity in words” value [1] was “inactive”.
In the case of `N=C(N)c1ccc(OC[C@H]2COc3ccc(N(Cc4ccccc4)C(=O)C(=O)O)cc3O2)cc1` [(S)-10], the IC50 [1, 4] is reported as 16.7 ± 1.7 µM.
`N=C(N)c1ccc(OC[C@H]2COc3cc(N(Cc4ccccc4)C(=O)C(=O)O)ccc3O2)cc1` [(S)-11] showed an IC50 [1, 4] of 29.8 ± 1.6 µM.
For `CCOC(=O)C(=O)N(Cc1ccccc1)c1ccc2c(c1)O[C@@H](COc1ccc(C(=N)N)cc1)CO2` [(S)-12, (S)-Ethyl 2-(benzyl(3-((4-carbamidoylphenoxy)methyl)-2,3-dihydrobenzo[b][1,4]dioxin-6-yl)amino)-2-oxoacetate], the IC50 [1, 4] is given as 8.47 ± 0.76 µM, the IC50 [1, 5] is given as under 10 µM and the “thrombin inhibition in words” value ([2]; ref [38]) is given as “highly potent”.
With `N=C(N)c1ccccc1` [Benzamidine, reference compound] the “matriptase-2 inhibitory activity in words” value [1] was “lack of inhibitory activity” and the IC50 [1, 5] was over 400 µM.
With `CN(C)CCNC(=O)c1ccc2nc(NC(=O)c3ccccc3)sc(=O)c2c1` [Compound 1] the IC50 [1, 6] was 148 ± 28 µM.
With `CN(C)CCNC(=O)c1ccc2c(=O)sc(NC(=O)c3ccccc3)nc2c1` [Compound 2] the IC50 [1, 6] was over 160 µM and the “matriptase-2 inhibitory activity in words” value [1] was “loss of activity”.
Molecule `CN1CCN(C(=O)c2ccc3nc(NC(=O)c4ccccc4)sc(=O)c3c2)CC1` [Compound 3] has an IC50 [1, 6] of over 160 µM.
Work on `CN1CCN(C(=O)c2ccc3c(=O)sc(NC(=O)c4ccccc4)nc3c2)CC1` [Compound 4] yielded an IC50 [1, 6] of over 160 µM.
For `O=C(Nc1nc2ccc(C(=O)N3CCN(Cc4ccccc4)CC3)cc2c(=O)s1)c1ccccc1` [Compound 5], the IC50 [1, 6] was over 160 µM and the “matriptase-2 inhibitory activity in words” value [1] was “inactive”.
Work on `O=C(Nc1nc2cc(C(=O)N3CCN(Cc4ccccc4)CC3)ccc2c(=O)s1)c1ccccc1` [Compound 6] yielded an IC50 [1, 6] of over 160 µM.
For `NCc1ccc(C(=O)Nc2nc3ccccc3c(=O)s2)cc1` [Compound 7], the IC50 [1, 6] was 119 ± 9 µM and the “matriptase-2 inhibitory activity in words” value [1] was “active”.
With `CN1CCN(C(=O)c2ccc(C(=O)Nc3nc4ccccc4c(=O)s3)cc2)CC1` [Compound 8] the IC50 [1, 6] was over 160 µM and the “matriptase-2 inhibitory activity in words” value [1] was “inactive”.
For `O=C(Nc1nc2ccccc2c(=O)s1)c1ccc(C(=O)N2CCN(Cc3ccccc3)CC2)cc1` [Compound 9], the IC50 [1, 6] was over 160 µM and the “matriptase-2 inhibitory activity in words” value [1] was “inactive”.
In the case of `CN1CC(C)(COc2ccc(C(=N)N)cc2)Oc2cc(N(Cc3ccc(F)cc3)C(=O)C(=O)O)ccc21` (stereo not shown) [Compound 13], the IC50 [1, 4] is given as over 40 µM, the “matriptase-2 inhibitory activity in words” value [1] is given as “inactive” and the “thrombin inhibition relative to trypsin and factor Xa, in words” value [2] is given as “inhibited thrombin better than trypsin and factor Xa”. For the same molecule, the “thrombin inhibition in words” value ([2]; ref [39]) was “highly active”.
Molecule `CN1CC(C)(COc2ccc(C(=N)N)cc2)Oc2ccc(N(Cc3cc(F)cc(F)c3)C(=O)C(=O)O)cc21` (stereo not shown) [Compound 14] has an IC50 [1, 4] of 35.8 ± 1.1 µM.
In the case of `CN1CC(C)(COc2ccc(C(=N)N)cc2)Oc2cc(N(CC(=O)O)Cc3cc(F)cc(F)c3)ccc21` (stereo not shown) [Compound 15], the IC50 [1, 4] is listed as 25.8 ± 4 µM and the “thrombin inhibition relative to trypsin and factor Xa, in words” value [2] is listed as “inhibited thrombin better than trypsin and factor Xa”.
For `CN1CC(C)(COc2ccc(C(=N)N)cc2)Oc2cc(N(CC(=O)O)Cc3ccc(F)cc3)ccc21` (stereo not shown) [Compound 16], the IC50 [1, 4] is listed as 13.6 ± 2.31 µM and the “thrombin inhibition relative to trypsin and factor Xa, in words” value [2] is listed as “inhibited thrombin better than trypsin and factor Xa”.
In the case of `CN1CC(C)(COc2ccc(C(=N)N)cc2)Oc2ccc(N(CC(=O)O)Cc3ccc(F)cc3)cc21` (stereo not shown) [Compound 17], the IC50 [1, 4] is reported as 11.2 ± 1.61 µM.
For `CCOC(=O)CN(Cc1ccc(F)cc1)c1ccc2c(c1)OC(C)(COc1ccc(C(=N)N)cc1)CN2C` (stereo not shown) [Compound 18], the IC50 [1, 4] was 31.6 ± 2.69 µM.
In the case of `CN1CC(C)(COc2ccc(C(=N)N)cc2)Oc2cc(NC(=O)CCC(=O)O)ccc21` (stereo not shown) [Compound 19], the IC50 [1, 4] is reported as 38.8 ± 3.14 µM, the “matriptase-2 inhibitory activity in words” value [1] is reported as “moderately active” and the “type of inhibition (Lineweaver-Burk plot)” value [3] is reported as “mixed type of inhibition”.
In the case of `COC(=O)C(Cc1ccccc1)C(=O)Nc1ccc2c(c1)OC(C)(COc1ccc(C(=N)N)cc1)CN2C` (stereo not shown) [Compound 20], the IC50 [1, 4] is reported as 31.4 ± 3.6 µM and the “matriptase-2 inhibitory activity in words” value [1] is reported as “moderately active”.
`CN1C(=O)C(OCc2ccc(C(=N)N)cc2)Oc2cc(C(=O)Nc3ccccc3)ccc21` (stereo not shown) [Compound 21] showed an IC50 [1, 4] of 42.6 ± 4.7 µM.
Work on `N=C(N)c1ccc(CN2C(=O)COc3cc(NC(=O)[C@H](N)Cc4ccccc4)ccc32)cc1` [Compound 22] yielded an IC50 [1, 4] of 30.9 ± 3.4 µM.
In the case of `CCOC(=O)[C@H](CNC(=O)CN1C(=O)COc2cc(NC(=O)c3ccc(C(=N)N)cc3)ccc21)NS(=O)(=O)c1ccc(C)cc1` [Compound 23], the IC50 [1, 4] is reported as 20.5 ± 2 µM.
With `COc1ccc2cc(S(=O)(=O)NN(Cc3cccc(C(=N)N)c3)C(=O)N(C)C3CCCC3)ccc2c1` [Compound 25] the IC50 [1, 4] was over 40 µM and the “matriptase-2 inhibitory activity in words” value [1] was “inactive”.
